# Reference: patent publication US8168647B2, “Vinblastine derivatives, their preparation, use and pharmaceutical compositions comprising the said derivatives” (Shanghai Institute of Materia Medica Chinese Academy of …, priority 2007, dated 2012)
# Structures can show the parent of a compound that is named as a salt. Where two headings read alike, the source gives them in different places. Marks after values point to notes of the source that are not given here.
# Experiments:
# [1] = tested on: human non-small cell lung cancer cell line A-549; experiment: In vitro cytotoxicity assay, Sulforhodamine B (SRB), A-549; type: cell-based; settings: for IC50: Homo sapiens
# [2] = tested on: sarcoma 180; experiment: In vivo antitumor assay on Sarcoma 180 (S180) in mice
# [3] = tested on: human non-small cell lung cancer (A549) xenografts; experiment: Nude mice models bearing human non-small cell lung cancer (A549) xenografts; settings: for efficacy against A549 xenografts (in words) / toxicity in the mice (in words): iv
# [4] = tested on: human cervical carcinoma cell line Hela; experiment: In vitro cytotoxicity assay, Sulforhodamine B (SRB), Hela; type: cell-based; settings: Homo sapiens, HeLa
# [5] = depending on its concentration and action time; read-out: IC50, in vitro activity; cited from earlier work
# [6] = tested on: human non-small cell lung cancer (A549) xenografts; settings: mouse, in vivo
# [7] = 1.5 mg/kg iv once at d0, dn: 12 days after the first administration
# [8] = 3 mg/kg iv once at d0, dn: 12 days after the first administration
# [9] = 6 mg/kg iv once at d0, dn: 12 days after the first administration
# [10] = BM48 tartrate once at d0, vinorelbine tartrate twice at d0 and d4
structure (smiles),measurement,setting,value
CCC1=C[C@@H]2CN(CCc3c([nH]c4ccccc34)[C@@](C(=O)OC)(c3cc4c(cc3OC)N(C)[C@H]3C(O)(CNC(=O)OC)[C@H](OC(C)=O)[C@]5(CC)C=CCN6CC[C@]43[C@@H]65)C2)C1 (stereo partly drawn) [BM48],"cell-based efficacy, inhibition of tumor cell proliferation (in words)",[1],excellent cell-based efficacy
same,IC50,"[1]; A549, 72 h, read-out: A549 (IC50, nM)",75.3 nM
same,Average weight (g) At sacrifice,"[2]; 10 mg/kg, iv, d 1, 4",27.1 g
same,Tumor Weight (g) X ± SD,"[2]; 10 mg/kg, iv, d 1, 4",0.85 ± 0.11 g
same,Average weight (g) At sacrifice,"[2]; 20 mg/kg, iv d 1",24.2 g
same,Tumor Weight (g) X ± SD,"[2]; 20 mg/kg, iv d 1",0.35 ± 0.03 g
same,inhibition in vivo at 10 mg/kg,"[2]; Mus musculus, Sarcoma-180, iv, read-out: Inhibition rate %, 10 mg/kg, iv, d 1, 4",46.9%
same,inhibition in vivo at 20 mg/kg,"[2]; Mus musculus, Sarcoma-180, iv, read-out: Inhibition rate %, 20 mg/kg, iv d 1",78.1%
same,T/C (%),[3]; 1.5 mg/kg iv once at d0,74.0%
same,Body weight (g) dn,[3]; [7],21.3 g
same,TV (mm^3) x ± SD dn,[3]; [7],2080 ± 542 mm^3
same,RTV x ± SD,"[3]; 1.5 mg/kg iv once at d0, relative tumor volume",8.18 ± 2.20
same,T/C (%),[3]; 3 mg/kg iv once at d0,62.9* %
same,Body weight (g) dn,[3]; [8],20.4 g
same,TV (mm^3) x ± SD dn,[3]; [8],1545 ± 410 mm^3
same,RTV x ± SD,"[3]; 3 mg/kg iv once at d0, relative tumor volume",6.96 ± 1.79
same,T/C (%),[3]; 6 mg/kg iv once at d0,31.5* %
same,Body weight (g) dn,[3]; [9],18.8 g
same,TV (mm^3) x ± SD dn,[3]; [9],808 ± 336 mm^3
same,RTV x ± SD,"[3]; 6 mg/kg iv once at d0, relative tumor volume",3.48 ± 1.83
same,efficacy against A549 xenografts (in words),[3]; [10],significantly inhibited
same,toxicity in the mice (in words),[3]; [10],"appeared to show toxicity after the administration of BM48, but could recover well later"
same,efficacy against A549 xenografts (in words),"[3]; BM48 tartrate once at d0, vinorelbine tartrate twice at d0 and d4, listed as BM48 tartrate",comparable to or even a little better than vinorelbine tartrate
same,IC50,"[4]; 72 h, read-out: Hela (IC50, nM)",34.8 nM
"CC[C@]12C=CCN3CC[C@@]4(c5cc([C@@]6(C(=O)OC)C[C@@H]7C[C@@H](C(C)(F)F)CN(Cc8c6[nH]c6ccccc86)C7)c(OC)cc5N(C)[C@H]4[C@@](O)(C(=O)OC)[C@@H]1OC(C)=O)[C@@H]32 [Vinflunine, reference compound]",Average weight (g) At sacrifice,"[2]; 40 mg/kg, iv, d 1, 4",28.4 g
same,Tumor Weight (g) X ± SD,"[2]; 40 mg/kg, iv, d 1, 4",0.44 ± 0.13 g
same,inhibition in vivo at 40 mg/kg,"[2]; Mus musculus, Sarcoma-180, iv, read-out: Inhibition rate %, 40 mg/kg, iv, d 1, 4",72.5%
same,IC50,[5],60 to 300 nM
"CCC1=C[C@@H]2CN(C1)Cc1c([nH]c3ccccc13)[C@@](C(=O)OC)(c1cc3c(cc1OC)N(C)[C@H]1[C@@](O)(C(=O)OC)[C@H](OC(C)=O)[C@]4(CC)C=CCN5CC[C@]31[C@@H]54)C2 [Vinorelbine tartrate, vinorelbine tartrate, reference compound]",IC50,"[1]; A549, SRB assay, 72 hours incubation, ditartrate of all compounds used, read-out: A549 (IC50)",23.1 nM
same,Average weight (g) At sacrifice,"[2]; 10 mg/kg, iv, d 1, 4",27.5 g
same,Tumor Weight (g) X ± SD,"[2]; 10 mg/kg, iv, d 1, 4",0.60 ± 0.23 g
same,inhibition in vivo at 10 mg/kg,"[2]; Mus musculus, Sarcoma-180, iv, read-out: Inhibition rate %",62.5%
same,toxicity in the mice (in words),[3]; [10],higher toxicity
same,RTV x ± SD,"[3]; mouse, in vivo",2.66 ± 1.18
same,T/C (%),"[3]; mouse, in vivo",24.1* %
same,TV (mm^3) x ± SD dn,"[3]; mouse, in vivo",550 ± 206 mm^3
same,efficacy against A549 xenografts (in words),"[3]; mouse, in vivo",a little better efficacy than BM48 tartrate
same,IC50,"[4]; SRB assay, 72 hours incubation, ditartrate of all compounds used, read-out: Hela (IC50)",9.1 nM
same,Body weight (g) dn,[6],16.4 g
